Results reported in patent US7446199B2, “Compositions useful as inhibitors of protein kinases” (Vertex Pharmaceuticals Incorporated, priority 2003, dated 2008).

Columns and labels:
Type in all cases: biochemical
c-Met = c-Met (Homo sapiens, UniProt P08581); assay: Ki determination for the inhibition of c-Met, coupled enzyme system; details: 200 μM ATP, 10 μM polyGluTyr, 80 nM c-Met, 30° C.
Experimental: Compounds were screened for their ability to inhibit c-Met kinase activity using a standard coupled enzyme system (Fox et al., Protein Sci. 1998, 7, 2249). Reactions were carried out in a solution containing 100 mM HEPES (pH 7.5), 10 mM MgCl2, 25 mM NaCl, 300 μM NADH, 1 mM DTT, and 1.5% DMSO. Final substrate concentrations in the assay were 200 μM ATP (Sigma Chemicals, St Louis, Mo.) and 10 μM polyGluTyr (Sigma Chemical Company, St. Louis). Reactions were carried out at 30° C. and 80 nM c-Met. Final concentrations of the components of the coupled enzyme system were 2.5 mM phosphoenolpyruvate, 300 μM NADH, 30 μg/ml pyruvate kinase and 10 μg/ml lactate dehydrogenase.
An assay stock buffer solution was prepared containing all of the reagents listed above with the exception of ATP and a test compound of the present invention. The assay stock buffer solution (175 μl) was incubated in a 96 well plate with 5 μl of the test compound of the present invention at final concentrations spanning 0.006 μM to 12.5 μM at 30° C. for 10 minutes. Typically, a 12-point titration was conducted by preparing serial dilutions (from 10 mM compound stocks) with DMSO of the test compounds of the present invention in daughter plates. The reaction was initiated by the addition of 20 μl of ATP (final concentration 200 μM). Rates of reaction were obtained using a Molecular Devices Spectramax plate reader (Sunnyvale, Calif.) over 10 minutes at 30° C. The Ki values were determined from the rate data as a function of inhibitor concentration.

JAK3 = molecular target: T1, JAK3 (Homo sapiens, UniProt P52333); assay: JAK3 inhibition assay (ELISA, Poly (Glu, Ala, Tyr) coated plates); details: 2 mM ATP, 60 minutes at 30° C.
T1 sequence (P52333 1-1124): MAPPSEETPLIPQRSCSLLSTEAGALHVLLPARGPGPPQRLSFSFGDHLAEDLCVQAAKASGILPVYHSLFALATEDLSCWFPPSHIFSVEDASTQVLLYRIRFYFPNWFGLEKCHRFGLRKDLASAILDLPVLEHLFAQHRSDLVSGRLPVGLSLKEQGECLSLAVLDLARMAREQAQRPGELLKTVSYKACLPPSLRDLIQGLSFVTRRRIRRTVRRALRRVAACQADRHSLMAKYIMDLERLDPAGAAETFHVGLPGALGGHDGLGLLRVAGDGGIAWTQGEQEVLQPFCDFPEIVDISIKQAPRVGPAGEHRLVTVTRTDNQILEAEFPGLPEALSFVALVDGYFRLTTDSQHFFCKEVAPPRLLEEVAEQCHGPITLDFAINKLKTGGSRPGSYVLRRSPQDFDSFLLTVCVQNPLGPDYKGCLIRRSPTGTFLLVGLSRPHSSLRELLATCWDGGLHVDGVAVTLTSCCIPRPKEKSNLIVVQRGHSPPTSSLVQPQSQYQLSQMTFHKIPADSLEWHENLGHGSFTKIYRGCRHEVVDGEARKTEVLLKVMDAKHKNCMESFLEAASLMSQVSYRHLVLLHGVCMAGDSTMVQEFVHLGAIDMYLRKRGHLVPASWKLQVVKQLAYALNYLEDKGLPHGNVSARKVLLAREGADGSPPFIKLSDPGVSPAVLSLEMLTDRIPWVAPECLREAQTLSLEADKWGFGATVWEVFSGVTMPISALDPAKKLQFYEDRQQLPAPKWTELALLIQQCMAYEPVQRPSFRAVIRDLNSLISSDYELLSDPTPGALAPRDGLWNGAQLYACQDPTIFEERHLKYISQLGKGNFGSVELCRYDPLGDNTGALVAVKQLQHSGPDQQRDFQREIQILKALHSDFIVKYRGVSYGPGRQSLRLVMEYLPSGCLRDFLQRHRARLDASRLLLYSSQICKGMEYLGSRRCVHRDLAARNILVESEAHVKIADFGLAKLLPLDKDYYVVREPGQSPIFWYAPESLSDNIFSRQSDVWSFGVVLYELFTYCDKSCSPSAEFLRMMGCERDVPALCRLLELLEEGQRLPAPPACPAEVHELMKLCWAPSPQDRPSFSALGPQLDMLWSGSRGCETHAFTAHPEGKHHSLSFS
Experimental: Compound inhibition of JAK3 was assayed by the method described by G. R. Brown, et al., Bioorg. Med. Chem. Lett. 2000, vol. 10, pp 575-579 in the following manner. Into Maxisorb plates, previously coated at 4° C. with Poly (Glu, Ala, Tyr) 6:3:1 then washed with phosphate buffered saline 0.05% and Tween (PBST), was added 2 mM ATP, 5 mM MgCl2, and a solution of compound in DMSO. The reaction was started with JAK enzyme and the plates incubated for 60 minutes at 30° C. The plates were then washed with PBST, […] HRP-Conjugated 4G10 antibody was added, and the plate incubated for 90 minutes at 30° C. The plate was again washed with PBST, […] TMB solution is added, and the plates were incubated for another 30 minutes at 30° C. Sulfuric acid ([…] of 1M) was added to stop the reaction and the plate is read at 450 nm to obtain the optical densities for analysis to determine IC50 values.

c-KIT = molecular target: T2, c-KIT (Homo sapiens, UniProt P10721); assay: Inhibition of c-KIT, radiometric filter-binding assay; details: 700 μM ATP, 0.5 mg/mL pE4Y, room temperature
T2 construct: 0.02% BSA and 25 nM c-KIT
T2 sequence (P10721 26-976): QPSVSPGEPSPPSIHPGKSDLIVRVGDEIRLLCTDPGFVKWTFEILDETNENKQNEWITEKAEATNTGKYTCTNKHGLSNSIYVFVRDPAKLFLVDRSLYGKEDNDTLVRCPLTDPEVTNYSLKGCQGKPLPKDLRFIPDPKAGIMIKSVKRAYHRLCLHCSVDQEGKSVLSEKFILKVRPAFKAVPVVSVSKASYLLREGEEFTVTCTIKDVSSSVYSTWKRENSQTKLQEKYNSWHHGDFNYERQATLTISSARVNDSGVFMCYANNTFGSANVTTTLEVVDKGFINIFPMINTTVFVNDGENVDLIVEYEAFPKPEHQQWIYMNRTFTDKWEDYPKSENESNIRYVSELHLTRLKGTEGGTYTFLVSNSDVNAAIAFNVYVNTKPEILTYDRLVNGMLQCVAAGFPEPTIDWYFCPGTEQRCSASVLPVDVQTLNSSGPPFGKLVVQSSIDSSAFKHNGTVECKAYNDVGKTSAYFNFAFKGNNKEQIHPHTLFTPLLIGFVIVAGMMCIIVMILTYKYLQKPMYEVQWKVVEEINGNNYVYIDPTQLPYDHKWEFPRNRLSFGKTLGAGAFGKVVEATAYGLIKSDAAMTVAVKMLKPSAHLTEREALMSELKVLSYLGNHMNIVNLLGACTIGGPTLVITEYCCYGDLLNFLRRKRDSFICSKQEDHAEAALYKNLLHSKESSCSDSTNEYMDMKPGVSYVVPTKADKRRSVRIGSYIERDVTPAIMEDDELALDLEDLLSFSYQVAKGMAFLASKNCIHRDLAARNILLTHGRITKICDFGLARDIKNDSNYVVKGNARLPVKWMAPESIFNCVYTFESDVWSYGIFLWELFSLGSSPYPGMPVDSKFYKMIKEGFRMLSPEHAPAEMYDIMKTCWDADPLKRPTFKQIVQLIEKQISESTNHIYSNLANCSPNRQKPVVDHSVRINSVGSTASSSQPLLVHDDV
Experimental: (§1) Compounds are screened for their ability to inhibit c-KIT activity using a radiometric filter-binding assay. This assay monitors the ^33P incorporation into a substrate poly(Glu, Tyr) 4:1 (pE4Y). Reactions are carried out in a solution containing 100 mM HEPES (pH 7.5), 10 mM MgCl2, 25 mM NaCl, 1 mM DTT, 0.01% BSA and 2.5% DMSO. Final substrate concentrations in the assay were 700 μM ATP and 0.5 mg/mL pE4Y (both from Sigma Chemicals, St Louis, Mo.). The final concentration of compounds is generally between 0.01 and 5 μM. Typically, a 12-point titration is conducted by preparing serial dilutions from 10 mM DMSO stock of test compound. Reactions were carried out at room temperature.
Two assay solutions are prepared. Solution 1 contains 100 mM HEPES (pH 7.5), 10 mM MgCl2, 25 mM NaCl, 1 mg/ml pE4Y and 1.4 mM ATP(containing 0.5 μCi of [γ-^33P]ATP for each reaction). Solution 2 contains 100 mM HEPES (pH 7.5), 10 mM MgCl2, 25 mM NaCl, 2 mM DTT, 0.02% BSA and 25 nM c-KIT. The assay is run on a 96 well plate by mixing 33 μL of Solution1 and 1.65 μL of the test compounds. The reaction is initiated with 33 μL of Solution2. After incubation for 20 minutes at room temperature, the reaction was stopped with 50 μL of 10% TCA containing 0.2 mM of ATP. All of the reaction volume is then transferred to a filter plate and washed with 5% TCA by a Harvester9600 from TOMTEC (Hamden, Conn.). The amount of ^33P incorporation into pE4y is analyzed by a Packard TopCount Microplate Scintillation Counter (Meriden, Conn.). The data is fitted using Prism software to get an IC50 or Ki.

FLT-3 = molecular target: T3, FLT-3 (Homo sapiens, UniProt P36888); assay: Inhibition of FLT-3, radiometric filter-binding assay; details: 90 μM ATP, 0.5 mg/mL pE4Y, room temperature
T3 construct: 0.02% BSA and 3 nM FLT-3
T3 sequence (P36888 27-993): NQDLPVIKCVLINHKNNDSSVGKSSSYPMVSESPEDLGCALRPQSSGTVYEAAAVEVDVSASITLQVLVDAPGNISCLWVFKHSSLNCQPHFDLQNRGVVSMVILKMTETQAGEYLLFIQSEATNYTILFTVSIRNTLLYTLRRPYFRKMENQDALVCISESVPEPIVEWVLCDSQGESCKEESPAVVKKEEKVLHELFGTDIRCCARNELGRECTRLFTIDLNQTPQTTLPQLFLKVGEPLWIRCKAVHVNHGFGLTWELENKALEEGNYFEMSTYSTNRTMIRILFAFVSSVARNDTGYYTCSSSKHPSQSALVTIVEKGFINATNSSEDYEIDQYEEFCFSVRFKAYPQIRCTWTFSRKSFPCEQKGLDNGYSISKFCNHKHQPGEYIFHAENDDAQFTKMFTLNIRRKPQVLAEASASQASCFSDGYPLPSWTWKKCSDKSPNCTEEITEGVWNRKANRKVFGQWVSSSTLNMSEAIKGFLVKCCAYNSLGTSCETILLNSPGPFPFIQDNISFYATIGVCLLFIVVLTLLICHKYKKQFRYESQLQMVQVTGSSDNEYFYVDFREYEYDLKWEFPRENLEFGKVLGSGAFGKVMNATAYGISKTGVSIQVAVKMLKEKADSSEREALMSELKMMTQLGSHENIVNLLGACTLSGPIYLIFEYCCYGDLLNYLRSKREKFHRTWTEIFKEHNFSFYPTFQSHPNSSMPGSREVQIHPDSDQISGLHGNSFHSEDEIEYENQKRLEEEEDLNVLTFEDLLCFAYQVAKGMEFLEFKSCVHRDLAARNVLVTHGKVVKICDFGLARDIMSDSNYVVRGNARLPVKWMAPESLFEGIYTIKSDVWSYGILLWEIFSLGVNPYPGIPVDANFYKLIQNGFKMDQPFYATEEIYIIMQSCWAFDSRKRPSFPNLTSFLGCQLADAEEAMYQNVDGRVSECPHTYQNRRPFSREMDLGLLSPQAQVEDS
Experimental: as §1, with “Compounds were” for “Compounds are”, “inhibit FLT-3” for “inhibit c-KIT”, “Reactions were” for “Reactions are”, “were 90” for “were 700”, “titration was” for “titration is”
Two assay solutions were prepared. Solution 1 contains 100 mM HEPES (pH 7.5), 10 mM MgCl2, 25 mM NaCl, 1 mg/ml pE4Y and 180 μM ATP(containing 0.3 μCi of [γ-^33P]ATP for each reaction). Solution 2 contains 100 mM HEPES (pH 7.5), 10 mM MgCl2, 25 mM NaCl, 2 mM DTT, 0.02% BSA and 3 nM FLT-3. The assay was run on a 96 well plate by mixing 50 μL each of Solution 1 and […] of the test compounds. The reaction was initiated with Solution2. After incubation for 20 minutes at room temperature, the reaction was stopped with 50 μL of 20% TCA containing 0.4 mM of ATP. All of the reaction volume was then transferred to a filter plate and washed with 5% TCA by a Harvester9600 from TOMTEC (Hamden, Conn.). The amount of ^33P incorporation into pE4y was analyzed by a Packard TopCount Microplate Scintillation Counter (Meriden, Conn.). The data was fitted using Prism software to get an IC50 or Ki.

Sequence of c-Met (P08581 25-1390): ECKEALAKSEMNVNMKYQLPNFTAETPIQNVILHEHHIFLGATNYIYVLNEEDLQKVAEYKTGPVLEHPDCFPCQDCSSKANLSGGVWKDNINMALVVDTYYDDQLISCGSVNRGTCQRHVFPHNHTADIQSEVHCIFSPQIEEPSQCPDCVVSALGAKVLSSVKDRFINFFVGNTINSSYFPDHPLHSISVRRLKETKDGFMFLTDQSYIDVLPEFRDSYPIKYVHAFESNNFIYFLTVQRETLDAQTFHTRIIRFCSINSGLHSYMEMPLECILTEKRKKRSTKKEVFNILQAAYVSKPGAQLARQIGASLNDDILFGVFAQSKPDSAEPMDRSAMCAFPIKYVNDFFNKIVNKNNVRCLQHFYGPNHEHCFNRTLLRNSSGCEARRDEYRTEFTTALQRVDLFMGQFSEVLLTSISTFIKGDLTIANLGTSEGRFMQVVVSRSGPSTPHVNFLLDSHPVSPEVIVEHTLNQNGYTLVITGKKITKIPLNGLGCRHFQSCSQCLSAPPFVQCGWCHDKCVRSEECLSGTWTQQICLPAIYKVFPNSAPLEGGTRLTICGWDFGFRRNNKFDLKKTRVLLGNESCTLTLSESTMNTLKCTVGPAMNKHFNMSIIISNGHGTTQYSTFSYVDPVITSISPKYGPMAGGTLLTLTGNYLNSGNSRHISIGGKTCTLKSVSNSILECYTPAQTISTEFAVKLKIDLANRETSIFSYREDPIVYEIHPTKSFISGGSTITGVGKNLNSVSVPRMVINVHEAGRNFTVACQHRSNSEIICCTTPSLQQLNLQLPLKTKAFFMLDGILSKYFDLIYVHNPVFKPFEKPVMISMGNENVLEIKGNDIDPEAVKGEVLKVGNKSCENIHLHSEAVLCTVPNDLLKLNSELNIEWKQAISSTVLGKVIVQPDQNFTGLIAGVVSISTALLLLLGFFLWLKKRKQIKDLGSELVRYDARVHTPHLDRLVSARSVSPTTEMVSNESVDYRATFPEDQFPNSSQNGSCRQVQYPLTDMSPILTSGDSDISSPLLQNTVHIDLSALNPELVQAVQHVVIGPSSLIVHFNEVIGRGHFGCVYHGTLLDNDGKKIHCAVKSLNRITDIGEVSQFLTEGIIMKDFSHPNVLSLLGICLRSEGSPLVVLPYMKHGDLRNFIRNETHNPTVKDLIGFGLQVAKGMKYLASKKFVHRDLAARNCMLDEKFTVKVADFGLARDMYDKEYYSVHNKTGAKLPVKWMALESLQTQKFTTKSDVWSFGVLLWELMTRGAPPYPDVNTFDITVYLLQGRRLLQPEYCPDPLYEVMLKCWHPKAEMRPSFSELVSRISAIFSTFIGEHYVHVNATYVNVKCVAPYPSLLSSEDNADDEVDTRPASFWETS

| SMILES | Ki (c-Met) [nM] | Ki (JAK3) [nM] | Ki (c-KIT) [nM] | Ki (FLT-3) [nM] |
| --- | --- | --- | --- | --- |
| OCC1CCN(c2ccc(-c3cnc4[nH]cc(-c5nncn5-c5cccc(F)c5F)c4c3)cn2)CC1 [Compound 120, (5′-{3-[4-(2,3-Difluoro-phenyl)-4H-[1,2,4]triazol-3-yl]-1H-pyrrolo[2,3-b]pyridin-5-yl}-3,4,5,6-tetrahydro-2H-[1,2′]bi-pyridinyl-4-yl)-methanol] | < 200 | 1000 to 12500 | 200 to 1000 |  |
| CN(C)c1ccc(-c2cnc3[nH]cc(-c4nncn4-c4cccc(F)c4F)c3c2)cc1N [Compound 130, 4-{3-[4-(2,3-Difluoro-phenyl)-4H-[1,2,4]triazol-3-yl]-1H-pyrrolo[2,3-b]pyridin-5-yl}-N^1,N^1-dimethyl-benzene-1,2-diamine] | < 200 | 200 to 1000 | < 200 |  |
| Fc1cccc(-n2cnnc2-c2c[nH]c3ncc(-c4ccc(N5CCOCC5)nc4)cc23)c1F [Compound 121, 3-[4-(2,3-Difluoro-phenyl)-4H-[1,2,4]triazol-3-yl]-5-(6-morpholin-4-yl-pyridin-3-yl)-1H-pyrrolo[2,3-b]pyridine] | < 200 | 1000 to 12500 | 200 to 1000 |  |
| CN1CCN(c2ccc(-c3cnc4[nH]cc(-c5nncn5-c5cccc(F)c5F)c4c3)cc2N)CC1 [Compound 129, 5-{3-[4-(2,3-Difluoro-phenyl)-4H-[1,2,4]triazol-3-yl]-1H-pyrrolo[2,3-b]pyridin-5-yl}-2-(4-methyl-piperazin-1-yl)-phenylamine] | < 200 | 200 to 1000 | < 200 |  |

More lines, now with the values ahead:

| Ki (c-Met) [nM] | Ki (JAK3) [nM] | Ki (c-KIT) [nM] | Ki (FLT-3) [nM] | SMILES |
| --- | --- | --- | --- | --- |
| < 200 | 200 to 1000 | 200 to 1000 |  | Fc1cccc(-n2cnnc2-c2c[nH]c3ncc(-c4ccc(NCC5CCCO5)nc4)cc23)c1F (centres unmarked) [Compound 124, (5-{3-[4-(2,3-Difluoro-phenyl)-4H-[1,2,4]triazol-3-yl]-1H-pyrrolo[2,3-b]pyridin-5-yl}-pyridin-2-yl)-(tetrahydro-furan-2-ylmethyl)-amine] |
| 1000 to 12500 |  |  | 1000 to 12500 | CN(C)Cc1cnc2[nH]cc(-c3oncc3-c3cccc(F)c3F)c2c1 [Compound 54, {3-[4-(2,3-Difluoro-phenyl)-isoxazol-5-yl]-1H-pyrrolo[2,3-b]pyridin-5-ylmethyl}-dimethyl-amine] |
